These results are taken from patent US5371081A, “N-substituted phenoxazines for treating multidrug resistant cancer cells” (St. Jude Children's Research Hospital, priority 1993, dated 1994).

One assay concerns GC3 /CL. Briefly: Resistance of cell line to VCR. It counts as cell-based, human. The settings on record: relative to KB-3-1. The method, then:
(§1) A cloned line of human colon adenocarcinoma, GC3 /Cl^31, which is intrinsically resistant to VCR (≈4-fold relative to KB-3-1), was routinely grown at 37° C. in antibiotic-free RPMI-1640 medium supplemented with 2 mM glutamine and 10% FBS (Hyclone Laboratories, Inc., Logan, Utah) in a humidified atmosphere of 5% CO2 and 95% air. Human epidermoid carcinoma KB-3-1 cells and a colchicine selected MDR variant, KBCh®-8-5, were obtained which was cross-resistant to VCR (45-fold) and VLB (6.3-fold); it was grown in monolayer culture at 37° C. in DMEM with 10% FBS and L-glutamine in a humidified atmosphere of 10% CO2 in air. The resistance of the KBCh®-8-5 cells was maintained by culturing them with colchicine (10 ng/ml).

The subject of a further assay is GC3 /Cl Cells. Briefly: Potentiation of cytotoxicity of vincristine and vinblastine. It counts as cell-based. The settings on record: Homo sapiens, 168 h, read-out: IC50 of VCR alone. Here is the method:
(§2) Tumor cells were treated with graded concentrations of VCR and VLB in the absence or presence of nontoxic concentrations of the products of Examples 1, 3, 4 and 18. The plates were then transferred to a CO2 incubator and, after further incubation for 7 days at 37° C., colonies were enumerated as described in Example 23.
(§3) ^a IC50 concentration of modulator

In another assay the test system is KB Ch^R -8-5 Cells. The assay is described as above. It counts as cell-based. The settings on record: Homo sapiens, 168 h, read-out: IC50 of VCR alone. The method, then: as §2, §3
For another assay, the system named is KBCh®-8-5. The assay is described as follows: Cross-resistance of cell line to VCR and VLB. It counts as cell-based, human. The settings on record: KBCh®-8-5, colchicine selected MDR variant. The method, then: as §1
In another assay the test system is MDR GC3 /Cl cells. The settings on record: compared with verapamil; cited from earlier work.
The next assay deals with KBCh®-8-5 cells. The settings on record: compared with verapamil; cited from earlier work.

Structures are written as SMILES.

In the case of `CC[C@]1(O)C[C@H]2CN(CCc3c([nH]c4ccccc34)[C@@](C(=O)OC)(c3cc4c(cc3OC)N(C=O)[C@H]3[C@@](O)(C(=O)OC)[C@H](OC(C)=O)[C@]5(CC)C=CCN6CC[C@]43[C@@H]65)C2)C1` [VCR], the “resistance to VCR” value in the assay with GC3 /CL is listed as “≈ 4 fold”. Moreover, the IC50 was 27 nM in the assay with GC3 /Cl Cells and 32 nM in the assay on KB Ch^R -8-5 Cells. For the same compound, the “cross-resistance to VCR” value in the assay on KBCh®-8-5 is recorded as 45 fold.
Turning to `c1ccc2c(c1)Nc1ccccc1O2` [phenoxazine], the “potentiation of uptake of VCR and VLB” value with MDR GC3 /Cl cells and in the assay on KBCh®-8-5 cells was “to a greater extent than verapamil” in each case.
